Assay results from patent US20100093744A1, “THIOGLUCOSE SPIROKETAL DERIVATIVE AND USE THEREOF AS THERAPEUTIC AGENT FOR DIABETES” (Chugai Seiyaku Kabushiki Kaisha, priority 2007, published 2010).

Biological target: T1, human SGLT2 (Homo sapiens, UniProt P31639)
T1 construct: expressed in transfected cells
T1 sequence (P31639 1-672): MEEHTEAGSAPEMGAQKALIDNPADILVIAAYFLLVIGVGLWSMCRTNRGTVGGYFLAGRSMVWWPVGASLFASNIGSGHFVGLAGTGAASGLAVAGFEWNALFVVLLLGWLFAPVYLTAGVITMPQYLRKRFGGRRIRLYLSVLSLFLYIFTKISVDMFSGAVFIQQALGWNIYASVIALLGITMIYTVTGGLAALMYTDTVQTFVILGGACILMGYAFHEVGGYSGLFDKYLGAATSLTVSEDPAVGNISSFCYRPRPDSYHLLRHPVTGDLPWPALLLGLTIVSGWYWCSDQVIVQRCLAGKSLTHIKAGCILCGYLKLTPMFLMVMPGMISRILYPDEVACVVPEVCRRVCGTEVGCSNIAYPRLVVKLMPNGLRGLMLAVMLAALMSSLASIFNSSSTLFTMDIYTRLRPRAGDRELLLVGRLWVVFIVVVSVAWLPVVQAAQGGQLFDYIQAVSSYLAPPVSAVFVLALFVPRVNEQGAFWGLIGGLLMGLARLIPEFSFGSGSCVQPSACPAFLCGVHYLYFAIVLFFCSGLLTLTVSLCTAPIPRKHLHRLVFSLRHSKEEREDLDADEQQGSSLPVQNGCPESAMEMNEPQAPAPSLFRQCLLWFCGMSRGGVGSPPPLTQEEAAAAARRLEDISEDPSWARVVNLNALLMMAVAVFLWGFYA
Assay: Inhibition of methyl-α-D-glucopyranoside uptake in CHO cells stably expressing human SGLT2
Assay type: cell-based
Conditions: methyl-α-D-(U-14C)glucopyranoside uptake, 37° C., 45 minutes, read-out: ICH value for the inhibition of SGLT2
Method: Assay for Evaluating Inhibition of Activity of Human Na^+-Glucose Cotransporter (SGLT1 and SGLT2)
Human SGLT2 cDNA was amplified by PCR with a cDNA library derived from human kidney (Clontech) as a template, synthetic DNA primers, and KOD+ DNA Polymerase. The amplified cDNA was inserted into pcRII-Topo vector by using a Topo TA Cloning Dual Promoter kit. E. coli competent cells (TPO10) were transformed with the plasmid vector, and then cultured in LB medium containing ampicillin (50 mg/L) to grow ampicillin-resistant clones. The plasmid vector containing human SGLT2 cDNA was purified from the clone in a standard manner. Human SGLT2 cDNA added restriction enzyme recognition sites (Xho I at 5′-end, Hind III at 3′-end) was amplified by PCR with the plasmid vector as a template, synthetic DNA primers containing an additional restriction enzyme recognition site, and KOD+ DNA Polymerase. This amplified cDNA was digested with Xho I and Hind III, and the resulting fragment was ligated into expression vector pcDNA3.1(−) digested with Xho I and Hind III by using a Rapid DNA Ligation kit. E. coli competent cells (DH5α) were transformed with the ligated expression vector and grown in ampicillin-containing LB medium. Human SGLT2 expression vector was purified from the ampicillin-resistant clone in a standard manner. […]

IC50: 12 nM
SMILES: CCc1ccc(Cc2ccc3c(c2)[C@]2(OC3)S[C@H](CO)[C@@H](O)[C@H](O)[C@H]2O)cc1 [Example 1, (1S,3′R,4′S,5′S,6′R)-6-[(4-ethylphenyl)methyl]-3′,4′,5′,6′-tetrahydro-6′-(hydroxymethyl)-spiro[isobenzofuran-1(3H),2′-[2H]thiopyran]-3′,4′,5′-triol]
